In paper PMC6804419, “Synthesis and Inhibitory Effect of Some Indole‐Pyrimidine Based Hybrid Heterocycles on α‐Glucosidase and α‐Amylase as Potential Hypoglycemic Agents” (ChemistryOpen, 2019):

Tests used:
[1] = biological target: T1, α-glucosidase type 1 from baker's yeast (Saccharomyces cerevisiae, UniProt P53341); assay: α-Glucosidase inhibition assay; type: biochemical
T1 construct: purchased Sigma-Aldrich G5003
Excerpt: (§1) α‐glucosidase type 1 from baker‘s yeast (G5003; Sigma‐Aldrich, St. Louis, MO, USA), p‐nitrophenyl α‐D‐glucopyranoside (N1377, Sigma‐Aldrich), sodiumphosphatemonobasic (S3139, Sigma‐Aldrich), sodiumphosphatedibasic (S5136, Sigma‐Aldrich), andacarbose (A8980, Sigma‐Aldrich), DMSO (Dimethylsulfoxide), α‐amylase from Aspergillus oryzae (Sigma Aldrich), starch, DNS (3, 5‐dinitrosalicylic acid), sodiumpotassiumtartratetetrahydrate.
Concentration of α‐glucosidase and substrate. Sodium phosphate buffer (0.1 M) was adjusted by 0.1 N HCl to pH 7.0 with a pH meter (Thermo Fisher Scientific Inc., Waltham, MA, USA). p‐Nitrophenyl α‐D‐glucopyranoside (10 mM) and α‐glucosidase solutions (1 U/ml) were solubilized in 0.1 M sodium phosphate buffer (pH 7.0). All the reagents were manufactured shortly before use and warmed to 37 °C in a water bath. Sodium phosphate buffer (0.1 M, 158 μl per well) was added to a 96‐well plate. α‐Glucosidase (20 μl) and 2 μl of sample were added to 20 μl of p‐nitrophenyl α‐D‐glucopyranoside. In the 200‐μl final reaction volume (0.02 U/well, 0.1 U/ml) the substrate concentration was adjusted to […]. The background signal due to the sample color was measured at 405 nm with the PerkinElmer Wallac Victor3 spectrophotometer (PerkinElmer, Waltham, MA, USA) prior to adding the enzyme. Immediately following α‐glucosidase addition, absorbance was measured at 405 nm 8 times at 1‐min intervals.16
(§2) The inhibitory concentration 50 % (IC50) values were determined from the plots of percent inhibition versus log inhibitor concentration and calculated by logarithmic regression analysis from the mean inhibitory values.

[2] = biological target: T2, α-amylase from Aspergillus oryzae (Aspergillus oryzae, UniProt P0C1B3); assay: α-Amylase assay; type: biochemical
T2 construct: purchased Sigma Aldrich
Method: as §1
Briefly, 250 μL (0.4 mg/mL) was preincubated with 250 μL of α‐amylase solution for 10 min at 25 °C in one set of tubes. In another set of tubes α‐amylase was preincubated with 250 μL of phosphate buffer (pH 6.9). 250 μL of starch solution at increasing concentrations (0.2–1 % (w/v)) was added to both sets of reaction mixtures to start the reaction. The mixture was then incubated for 10 min at 25 °C and then boiled for 15 min after the addition of 250 μL of DNS to stop the reaction. The amount of reducing sugars released was determined spectrophotometrically using a maltose standard curve and converted to reaction velocities.
as §2

T1 sequence (P53341 whole entry): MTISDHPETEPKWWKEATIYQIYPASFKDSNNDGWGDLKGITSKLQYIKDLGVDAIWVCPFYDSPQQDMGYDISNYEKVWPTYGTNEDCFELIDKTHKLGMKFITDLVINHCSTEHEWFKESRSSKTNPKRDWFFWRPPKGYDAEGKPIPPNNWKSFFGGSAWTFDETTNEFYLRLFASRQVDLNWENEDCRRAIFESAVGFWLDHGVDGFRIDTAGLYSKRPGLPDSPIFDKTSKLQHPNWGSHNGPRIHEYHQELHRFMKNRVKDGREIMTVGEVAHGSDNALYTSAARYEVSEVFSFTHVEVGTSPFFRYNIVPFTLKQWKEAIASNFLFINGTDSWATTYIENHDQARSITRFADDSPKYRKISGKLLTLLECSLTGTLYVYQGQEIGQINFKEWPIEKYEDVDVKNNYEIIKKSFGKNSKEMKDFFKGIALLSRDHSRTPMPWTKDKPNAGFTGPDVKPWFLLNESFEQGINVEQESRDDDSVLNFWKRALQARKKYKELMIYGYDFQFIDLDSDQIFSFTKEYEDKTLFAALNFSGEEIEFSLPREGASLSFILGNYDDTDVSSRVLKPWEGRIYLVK

Row | Compound | IC50 [1] | IC50 [2] | melting point
1 | CCn1cc(C(=O)CC(c2cccc(C)c2)C2C(=O)N(C)C(=O)N(C)C2=O)c2ccccc21 (centres unmarked) [5i, 5‐(3‐(1‐Ethyl‐1H‐indol‐3‐yl)‐3‐oxo‐1‐(m–tolyl)propyl)‐1,3‐dimethylpyrimidine‐2,4,6(1H,3H,5H)‐trione] | 73.15 ± 0.12 µM | 95.25 ± 0.1 µM | 125 to 126 °C
2 | CCn1cc(C(=O)CC(c2ccc(Cl)cc2Cl)C2C(=O)N(C)C(=O)N(C)C2=O)c2ccccc21 (centres unmarked) [5d, 5‐(1‐(2,4‐Dichlorophenyl)‐3‐(1‐ethyl‐1H‐indol‐3‐yl)‐3‐oxopropyl)‐1,3‐dimethylpyrimidine‐2,4,6(1H,3H,5H)‐trione] | 58.21 ± 0.09 µM | 96.42 ± 0.22 µM | 149 to 150 °C
3 | CCn1cc(C(=O)CC(c2ccc(C)cc2)C2C(=O)N(C)C(=O)N(C)C2=O)c2ccccc21 (centres unmarked) [5b] | 53.15 ± 0.12 µM | 80.17 ± 0.05 µM | 155 to 156 °C
4 | CCn1cc(C(=O)CC(c2ccc([N+](=O)[O-])cc2)C2C(=O)N(C)C(=O)N(C)C2=O)c2ccccc21 (centres unmarked) [5q, 5‐(3‐(1‐Ethyl‐1H‐indol‐3‐yl)‐1‐(4‐nitrophenyl)‐3‐oxopropyl)‐1,3‐ dimethylpyrimidine‐2,4,6(1H,3H,5H)‐trione] | 31.12 ± 0.11 µM | 63 ± 0.61 µM | 198 to 199 °C
5 | CCn1cc(C(=O)CC(c2cccc(Br)c2)C2C(=O)N(C)C(=O)N(C)C2=O)c2ccccc21 (centres unmarked) [5j, 5‐(1‐(3‐Bromophenyl)‐3‐(1‐ethyl‐1H‐indol‐3‐yl)‐3‐oxopropyl)‐1,3‐dimethylpyrimidine‐2,4,6(1H,3H,5H)‐trione] | 77.05 ± 0.04 µM | 86.42 ± 0.22 µM | 130 to 131 °C
6 | CCn1cc(C(=O)CC(c2ccc(OC)cc2)C2C(=O)N(C)C(=O)N(C)C2=O)c2ccccc21 (centres unmarked) [5e, 5‐(3‐(1‐Ethyl‐1H‐indol‐3‐yl)‐1‐(4‐methoxyphenyl)‐3‐oxopropyl)‐1,3‐dimethylpyrimidine‐2,4,6(1H,3H,5H)‐trione] | 61.4 ± 0.78 µM | 88.45 ± 0.32 µM | 128 to 129 °C
7 | CCn1cc(C(=O)CC(c2ccc(C(F)(F)F)cc2)C2C(=O)N(C)C(=O)N(C)C2=O)c2ccccc21 (centres unmarked) [5k, 5‐(3‐(1‐Ethyl‐1H‐indol‐3‐yl)‐3‐oxo‐1‐(4‐(trifluoromethyl)phenyl)propyl)‐1,3‐dimethylpyrimidine‐2,4,6(1H,3H,5H)‐trione] | 20.5 ± 0.44 µM | 47.11 ± 0.09 µM | 168 to 169 °C
8 | CN1C(=O)C(C(CC(=O)c2cn(C)c3ccccc23)c2ccccc2)C(=O)N(C)C1=O (centres unmarked) [5a, 1,3‐Dimethyl‐5‐(3‐(1‐methyl‐1H‐indol‐3‐yl)‐3‐oxo‐1‐phenylpropyl)pyrimidine‐2,4,6(1H,3H,5H)‐trione] | 65.14 ± 0.17 µM | 93.25 ± 0.1 µM | 185 to 186 °C
9 | CCn1cc(C(=O)CC(c2ccco2)C2C(=O)N(C)C(=O)N(C)C2=O)c2ccccc21 (centres unmarked) [5m, 5‐(3‐(1‐Ethyl‐1H‐indol‐3‐yl)‐1‐(furan‐2‐yl)‐3‐oxopropyl)‐1,3‐dimethylpyrimidine‐2,4,6(1H,3H,5H)‐trione] | 64.35 ± 0.08 µM | 82.15 ± 0.5 µM | 188 to 189 °C
10 | CCn1cc(C(=O)CC(c2ccc(F)cc2)C2C(=O)N(C)C(=O)N(C)C2=O)c2ccccc21 (centres unmarked) [5g, 5‐(3‐(1‐Ethyl‐1H‐indol‐3‐yl)‐1‐(4‐fluorophenyl)‐3‐oxopropyl)‐1,3‐dimethylpyrimidine‐2,4,6(1H,3H,5H)‐trione] | 69.75 ± 0.01 µM | 86.42 ± 0.22 µM | 185 to 186 °C
11 | CCn1cc(C(=O)CC(c2ccc3ccccc3c2)C2C(=O)N(C)C(=O)N(C)C2=O)c2ccccc21 (centres unmarked) [5o, 5‐(3‐(1‐Ethyl‐1H‐indol‐3‐yl)‐1‐(naphthalen‐2‐yl)‐3‐oxopropyl)‐1,3‐dimethylpyrimidine‐2,4,6(1H,3H,5H)‐trione] | 13.02 ± 0.01 µM | 21.7 ± 0.82 µM | 
12 | CCn1cc(C(=O)CC(c2cc(OC)c(OC)c(OC)c2)C2C(=O)N(C)C(=O)N(C)C2=O)c2ccccc21 (centres unmarked) [5n, 5‐(3‐(1‐Ethyl‐1H‐indol‐3‐yl)‐3‐oxo‐1‐(3,4,5‐trimethoxyphenyl)propyl)‐1,3‐dimethylpyrimidine‐2,4,6(1H,3H,5H)‐trione] | 53.15 ± 0.12 µM | 93.25 ± 0.1 µM | 170 to 171 °C
13 | CCn1cc(C(=O)CC(c2cccc(F)c2)C2C(=O)N(C)C(=O)N(C)C2=O)c2ccccc21 (centres unmarked) [5h, 5‐(3‐(1‐Ethyl‐1H‐indol‐3‐yl)‐1‐(3‐fluorophenyl)‐3‐oxopropyl)‐1,3‐dimethylpyrimidine‐2,4,6(1H,3H,5H)‐trione] | 61.1 ± 0.42 µM | 89.45 ± 0.44 µM | 188 to 189 °C
14 | CCn1cc(C(=O)CC(c2ccc(Br)cc2)C2C(=O)N(C)C(=O)N(C)C2=O)c2ccccc21 (centres unmarked) [5f, 5‐(1‐(4‐Bromophenyl)‐3‐(1‐ethyl‐1H‐indol‐3‐yl)‐3‐oxopropyl)‐1,3‐dimethylpyrimidine‐2,4,6(1H,3H,5H)‐trione] | 53.15 ± 0.12 µM | 78.25 ± 0.1 µM | 159 to 160 °C
15 | CCn1cc(C(=O)CC(c2ccc(Cl)cc2)C2C(=O)N(C)C(=O)N(C)C2=O)c2ccccc21 (centres unmarked) [5c, 5‐(1‐(4‐Chlorophenyl)‐3‐(1‐ethyl‐1H‐indol‐3‐yl)‐3‐oxopropyl)‐1,3‐dimethylpyrimidine‐2,4,6(1H,3H,5H)‐trione] | 49.75 ± 0.01 µM | 71.24 ± 0.2 µM | 166 to 167 °C
16 | CCn1cc(C(=O)CC(c2cccs2)C2C(=O)N(C)C(=O)N(C)C2=O)c2ccccc21 (centres unmarked) [5l, 5‐(3‐(1‐Ethyl‐1H‐indol‐3‐yl)‐3‐oxo‐1‐(thiophen‐2‐yl)propyl)‐1,3‐dimethylpyrimidine‐2,4,6(1H,3H,5H)‐trione] | 22.3 ± 0.48 µM | 35.4 ± 0.6 µM | 154 to 155 °C
